Among the data in patent US5646310A, “N-(2-cyanoethyl)-6-fluoroalkyl-2h-1-benzopyran derivatives” (Chugai Seiyaku Kabushiki Kaisha, priority 1993, dated 1997) are IC50 and EC50 values, retold here.

The test system of experiment [1] is thoracic aorta. The experiment is described as follows: Extracted rat aorta, relaxation of KCl-induced constriction (Test Example 1). The format is cell-based, male Sprague Dawley rat. The note with it: relaxation of continuous constriction caused by 30 mM potassium chloride, rat aorta ring; read-out: 50% inhibitory concentration (IC50). Here is the method: (§1) A thoracic aorta was extracted from male Sprague Dawley rat (450-600 g) to prepare a ring-formed sample having a width of 2 mm. The resulting sample was suspended at a tension of 2 g in an organ bath containing Krebs-Henseleit solution, and a gas composed of 95% oxygen and 5% carbon dioxide was passed therethrough. A constriction reaction of the sample was recorded isometrically by a FD pick-up. After equilibration for 1 to 1.5 hour, 30 mM potassium chloride was added in order to constrict the tissue, and an activity of the test compound for relaxing the continuous constriction caused by potassium chloride was evaluated by determining a 50% inhibitory concentration (IC50). As comparative compounds, N-(2-cyanoethyl)-2,2-dimethyl-6-nitro-2H-1-benzopyran-4-carbamide (Compound A) disclosed in WO 92/02514 and 6-trifluoromethyl--N-methyl-2,2-dimethyl-2H-1-benzopyran-4-carbothioamide (Compound B) disclosed in WO 92/14439 were used.

The test system of experiment [2] is thoracic aorta. The experiment is described as follows: Extracted rat aorta, relaxation of KCl-induced constriction relative to maximum relaxation (Test Example 2). The format is cell-based, male Sprague Dawley rat. The note with it: relaxation of continuous constriction caused by 30 mM potassium chloride, rat aorta ring, 2 ml organ bath; read-out: 50% inhibitory concentration (EC50) relative to the maximum relaxation effect of the compound. Here is the method:
as §1, with “in a 2 ml” for “in an”, “concentration (EC50) of the compound relative to the maximum relaxation effect of the compound.” for “concentration (IC50). As comparative compounds, N-(2-cyanoethyl)-2,2-dimethyl-6-nitro-2H-1-benzopyran-4-carbamide (Compound A) disclosed in WO 92/02514 and 6-trifluoromethyl--N-methyl-2,2-dimethyl-2H-1-benzopyran-4-carbothioamide (Compound B) disclosed in WO 92/14439 were used.”

In the case of `CC1(C)C=C(C(=O)NCCC#N)c2cc(C(F)(F)C(F)(F)F)ccc2O1` [Compound 1, N-(2-cyanoethyl)-6-pentafluoroethyl-2,2-dimethyl-2H-1-benzopyran-4-carbamide], the IC50 in the experiment on thoracic aorta [1] was determined as 0.24 nM.
`CC1(C)C=C(C(=S)NCCC#N)c2cc(C(F)(F)C(F)(F)F)ccc2O1` [Compound 2, N-(2-cyanoethyl)-6-pentafluoroethyl-2,2-dimethyl-2H-1-benzopyran-4-carbothioamide]: the IC50 in the experiment on thoracic aorta [1] stood at 0.88 nM.
As for `N#CCCNC(=S)C1=CC(CF)(CF)Oc2ccc(C(F)(F)F)cc21` [Compound 3, N-(2-cyanoethyl)-2,2-bisfluoromethyl-6-tri-fluoromethyl-2H-1-benzopyran-4-carbothioamide], the EC50 in the experiment with thoracic aorta [2] came out at 0.021 nM.
For `N#CCCNC(=S)C1=CC(CF)(CF)Oc2ccc(C(F)(F)C(F)(F)F)cc21` [Compound 4, N-(2-cyanoethyl)-6-pentafluoroethyl-2,2-bis-fluoromethyl-2H-1-benzopyran-4-carbothioamide], the EC50 in the experiment with thoracic aorta [2] amounted to 0.019 nM.
With `CC1(C)C=C(C(=O)NCCC#N)c2cc([N+](=O)[O-])ccc2O1` [Compound A, N-(2-cyanoethyl)-2,2-dimethyl-6-nitro-2H-1-benzopyran-4-carbamide, reference compound], in the experiment with thoracic aorta [1], the IC50 was found to be 2.8 nM.
The same measure, in the same setting: to `CNC(=S)C1=CC(C)(C)Oc2ccc(C(F)(F)F)cc21` [Compound B, 6-trifluoromethyl--N-methyl-2,2-dimethyl-2H-1-benzopyran-4-carbothioamide, reference compound] belongs 1.9 nM.
On to `CC1(C)Oc2ccc(C#N)cc2C(N2CCCC2=O)C1O` (stereo not shown) [Cromakalim, cromakalim, reference compound], for which the EC50 in the experiment with thoracic aorta [2] was found to be 170 nM.
